Columns and labels:
[1] = logP determination by HPLC (formic acid method); assay type: physicochemical; conditions: reversed-phase HPLC column (C18), reversed-phase column (C 18), 55° C., acidic range (pH 3.4), read-out: log P(HCOOH)
Description: 1) Description of the Method for Determining the logP Values (Formic Acid Method) The logP values were determined in accordance with EEC Directive 79/831 Annex V.A8 by HPLC (High Performance Liquid Chromatography) using a reversed-phase column (C 18). Temperature: 55° C. Mobile phases for determination in the acidic range (pH 3.4): Mobile phase A: acetonitrile+1 ml of formic acid/litre. Mobile phase B: water+0.9 ml of formic acid/litre. Gradient: 10% mobile phase A/90% mobile phase B to 95% mobile phase A/5% mobile phase B over 4.25 min. Calibration was carried out using unbranched alkan-2-ones (having from 3 to 16 carbon atoms) with known logP values (the logP values were determined by the retention times using linear interpolation between two successive alkanones). The lambda max values were determined in the maxima of the chromatographic signals using the UV spectra from 200 nm to 400 nm.

[2] = tested on: green peach aphid (Myzus persicae); test: Myzus test, spray treatment; assay type: in vivo; conditions: application rate of 500 g/ha; spray treatment of Chinese cabbage discs; after 6 days
Description: Myzus Test Spray Treatment Solvent: 78 parts by weight of acetone • • 1.5 parts by weight of dimethylformamide Emulsifier: 0.5 part by weight of alkylaryl polyglycol ether To produce a suitable preparation of active compound, 1 part by weight of active compound is mixed with the stated amounts of solvent and emulsifier, and the concentrate is diluted with emulsifier-containing water to the desired concentration. Discs of Chinese cabbage (Brassica pekinensis) infected by all stages of the green peach aphid (Myzus persicae) are sprayed with an active compound preparation of the desired concentration. After 6 days, the effect in % is determined. 100% means that all of the aphids have been killed; 0% means that none of the aphids have been killed.

Row | chromatographic logP [1] | SMILES | effect in % (100% means that all of the aphids have been killed) [2] [%]
1 | 2.27 | Clc1nc(-c2cccnc2)sc1-c1cccc(-c2ncccn2)n1 [2-{6-[4-Chloro-2-(pyridin-3-yl)-1,3-thiazol-5-yl]pyridin-2-yl}pyrimidine] | –
2 | 2.15 | Fc1nc(-c2cccnc2)sc1-c1cccc(-c2ncccn2)n1 [Example 1, 2-[6-(4-Fluoro-2-pyridin-3-ylthiazol-5-yl)pyridin-2-yl]pyrimidine] | 100
3 | 3.27 | Clc1cnc(-c2cccc(-c3sc(-c4cccnc4)nc3Cl)n2)nc1 [5-Chloro-2-{6-[4-chloro-2-(pyridin-3-yl)-1,3-thiazol-5-yl]pyridin-2-yl}pyrimidine] | –

From patent US8686156B2, “Thiazole derivatives as pesticides” (priority 2010, dated 2014)
